Tested on: ACHN
Format: cell-based
Settings: Renal Cancer

NCC(=O)NS(=O)(=O)OC[C@H]1O[C@@H](n2cnc3c(N)ncnc32)[C@H](O)[C@@H]1O [GlySA, glycylsulfamoyladenosine]
GI50 (Homo sapiens): 2.88 µM
CC50 (Homo sapiens, read-out: LC50 (the source's name)): 33.9 µM
LC50/GI50: 11.7

Source: patent publication US20190381086A1, “INHIBITION OF NEDDYLATION USING GLYCYL-tRNA SYNTHETASE INHIBITORS” (The Scripps Research Institute, priority 2015, published 2019)
